In patent US8937188B2, “Process for the preparation of lasofoxifene tartrate” (Glenmark Generics Ltd., priority 2009, dated 2015) one finds melting point data, which are given here for 1 compound.

SMILES strings stand for the structures.

In turn, `COc1ccc2c(c1)CCC=C2c1ccc(OCCN2CCCC2)cc1` [Example 1, 1-{2-[4-(6-Methoxy-3,4-dihydronaphthalene-1-yl)phenoxy]ethyl}pyrrolidine] had a melting point of 71 to 75 °C.
